{"source": "patent US9850483B2", "about": "“Methods and systems for analysis of single cells” (The Board of Trustees of the Leland Stanford Junior …, priority 2010, dated 2017)", "tested_on": "murine breast cancer stem cells", "assay": "Clonogenic ability of murine breast cancer stem cells (colony number)", "format": "cell-based", "settings": "short, 24 hour exposure to the inhibitor; p<0.02, t test", "experimental": "Many of these genes have been linked to self renewal and cancer. These include the insulin growth factor binding partner IGFBP3, the HOX family members HOXA3, HOXA5, ME1S1 as well as transcription factors like ETS1, ETS2, RUNX2 and STAT3. It was tested whether the transcription factor STAT3 is a bona fide cancer stem cell regulator. STAT3 plays a role in the maintenance of both ES cells and HSCs. […] Next, when we examined immunochemistry analysis of breast tumors the STAT3 positive cells tended to be concentrated on the invasive edge of the cancer and the protein was not seen in the more differentiated-looking cells in the interior parts of tumors. Finally, there are small molecule inhibitors of STAT3. Such inhibitors can be tested in cancer stem cell models. The effect of the STAT3 inhibitor cucurbitacin on the clonogenic ability of murine breast cancer stem cells was tested."}
{"substance": "cucurbitacin", "values": [{"measurement": "reduction of the number of colonies", "value": "~50", "unit": "%"}]}
